Values quoted from earlier work in patent publication US20190209596A1, “METHODS OF TREATING DISEASES” (Boehringer Ingelheim International GmbH, priority 2015, published 2019).

Details: metformin on its own, in the diabetic

## CN(C)C(=N)N=C(N)N [metformin]
  average improvement in the HbA1c value: 1.0-1.5%
